Experimental findings from patent US20240391896A1 (Nantong Jutai Biotech Co., Ltd., priority 2021, published 2024) are described below.

SMILES strings stand for the structures. Where two headings read alike, the source gives them in different places.

In one test the test system is Human AXIN2. In words: qPCR of AXIN2 expression in HCT116 cells. In kind it is cell-based. To be noted: HCT-116, Table 2, HCT116 cells, AXIN2 vs β-actin, 24 hours. As to the method: Cells were digesting, counting, and plating cells in 24-well plates (flat bottom, clear), with 3×10^5 cells/500 ul DMEM (10% FBS) per well. • 2. Observing the state of cells on the next day, and start dosing after cell attachment is intact
Diluting 514 with DMEM (2% FBS) by gradient dilution with concentrations of 20 μM, 10 μM, 5 μM, 2.5 μM, 1.25 μM, 0.625 μM, 0.3125 μM, 0.15625 μM, 0 μM (equal volume DMSO)
Adding 500 μl of the above different concentrations of 514 to each well, and setting a single well for each concentration gradient except three repeat wells for the 0 μM concentration (double wells for qPCR). • 3. Incubating at 37° C. for 24 hours • 4. Discarding the supernatant, washing once with PBS, and adding trizol at 500/well • 5. RNA extraction (step omitted) • 6. Reverse transcription (step omitted, according to the kit) • 7. qPCR (step omitted, following the kit steps)
• 8. calculation of inhibition rate
For orientation: Real-time PCR tracks product formation cycle by cycle.

In the next test the test system is HCT116 cells. Put plainly: CCK8 cell viability assay in HCT116 cells. In kind it is cell-based. Conditions: Homo sapiens, HCT-116; Table 2, HCT116 cells, 24 hours. As to the method:
• 1. HCT116 cell plating
Digesting, counting, and plating the cells in 96-well plates (flat bottom, transparent) with 10,000 cells/100 ul DMEM (10% FBS) per well; • 2. Observing the state of cells on the next day, and start dosing after cell attachment is intact; • 3. diluting 514 with DMEM (2% FBS) by gradient dilution with concentrations of 20 μM, 10 μM, 5 μM, 2.5 μM, 1.25 μM, 0.625 μM, 0.3125 μM, 0.15625 μM, 0 μM (equal volume of DMSO); • 4. Adding 100 μl of the above different concentrations of 514 to each well, and making two repeat wells for each concentration gradient; leaving three blank wells (only adding DMEM 2% FBS culture medium without cells). • 5. Culturing at 37° C. for 24 hours; • 6. Adding 10 μl CCK-8 enhanced solution to each well: due to the small amount added of CCK-8 in each well, it may cause errors resulting from the reagent staining on the wall of the well. It is recommended to gently tap the culture plate after adding the reagent to help mixing; • 7. Incubating in the incubator for 0.5-4 hours: the amount of Formazan formed is not the same for different cell types, in most cases, incubation for 1 hour is enough. If the color development is not enough, incubation can be continued to determine optimal conditions. • 8. Measuring the absorbance at 450 nm and 600 nm (excluding the interference of the background color of the reagent and the absorbance value of the well plate itself); • 9. Using OD450 nm-OD600 nm for the final absorbance, and calculating the inhibition rate:
[formula] • As: absorbance of experimental wells (medium containing cells, CCK-8, drug to be tested); • Ac: absorbance of control wells (medium containing cells, CCK-8, and no drug to be tested); • Ab: absorbance of blank wells (medium without cells and drug to be tested, CCK-8). (3) qPCR • 1. HCT116 cell plating
On the technique in general: Tetrazolium dyes change colour on reduction, which living cells bring about.

In another test the target is T1, BCL9/β-catenin (Homo sapiens, UniProt P35222).
T1 sequence (P35222 1-781): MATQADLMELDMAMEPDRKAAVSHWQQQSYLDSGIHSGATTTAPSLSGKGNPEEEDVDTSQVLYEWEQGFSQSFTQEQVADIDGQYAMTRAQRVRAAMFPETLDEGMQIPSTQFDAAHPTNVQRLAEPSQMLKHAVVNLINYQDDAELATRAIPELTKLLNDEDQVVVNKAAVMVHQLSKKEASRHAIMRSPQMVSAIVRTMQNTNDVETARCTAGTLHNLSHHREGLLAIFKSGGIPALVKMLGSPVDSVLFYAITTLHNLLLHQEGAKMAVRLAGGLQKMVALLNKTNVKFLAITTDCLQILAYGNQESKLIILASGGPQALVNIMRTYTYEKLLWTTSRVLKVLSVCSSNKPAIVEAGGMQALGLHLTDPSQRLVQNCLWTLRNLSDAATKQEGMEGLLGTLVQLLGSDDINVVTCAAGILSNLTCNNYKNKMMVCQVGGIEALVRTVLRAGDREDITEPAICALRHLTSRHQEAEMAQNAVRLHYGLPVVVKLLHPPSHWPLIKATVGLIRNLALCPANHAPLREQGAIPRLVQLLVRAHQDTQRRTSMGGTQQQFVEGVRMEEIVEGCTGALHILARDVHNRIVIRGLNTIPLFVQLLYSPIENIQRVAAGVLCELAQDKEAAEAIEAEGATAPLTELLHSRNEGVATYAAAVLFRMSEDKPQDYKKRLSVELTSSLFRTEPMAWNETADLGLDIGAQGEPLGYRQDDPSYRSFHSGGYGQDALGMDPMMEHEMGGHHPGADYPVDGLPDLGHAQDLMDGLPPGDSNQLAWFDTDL
In words: FP (BCL-9 avidity) fluorescence polarization competition assay with beta-catenin and FAP-Bcl9 tracer. Type of test: binding. As to the method: Incubating for 2 hours on a horizontal shaker. Then adding 2 nM FAP-Bcl9 tracer to each well, and after incubation for 2H on a horizontal shaker, measuring the […].
On the technique in general: In fluorescence polarisation assays a small probe gives low polarisation when free and higher when bound to something large.

Setting [1] is: Table 1.1, compounds 1-6, read-out: BCL-9 avidity FP IC50.
[2] abbreviates: Table 2, FP (BCL-9 affinity), read-out: FP.
The mark [3] stands for this setting: Table 1.2, compounds 7-16, read-out: BCL-9 avidity FP IC50.

Take `CC(C)(Oc1cccc(N2CC(C(=O)N(Cc3ccc(-c4c[nH]c5ncccc45)cc3)C3CC3)CC(c3ccccc3)C2)c1)C(=O)N1CCNCC1` (racemic) [Compound 3, N-cyclopropyl-1-(3-{[2-methyl-1-oxo-1-(piperazin-1-yl)propan-2-yl]oxy}phenyl)-5-phenyl-N-[(4-{1H-pyrrolo[2,3-b]pyridin-3-yl}phenyl)methyl]piperidine-3-carboxamide]: the IC50 was 10 to 20 µM with Human AXIN2, 10 to 20 µM with HCT116 cells, 2.76 µM at BCL9/β-catenin (setting [1]) and 2.76 µM at BCL9/β-catenin (setting [2]).
Regarding `CC(C)C1CC=C(c2ccc(CN(C(=O)C3CC(c4ccccc4)CN(c4cccc(OC(C)(C)C(=O)N5CCNCC5)c4)C3)C3CC3)cc2)CC1` (racemic) [Compound 4, N-cyclopropyl-1-(3-{[2-methyl-1-oxo-1-(piperazin-1-yl)propan-2-yl]oxy}phenyl)-5-phenyl-N-({4-[4-(propan-2-yl)cyclohex-1-en-1-yl]phenyl}methyl)piperidine-3-carboxamide], the IC50 in the test on Human AXIN2, with HCT116 cells and on BCL9/β-catenin (setting [2]) was 10 to 50 µM in each case.
As to `CC(C)(Oc1cccc(N2CC(C(=O)N(Cc3ccc(-c4ccccc4)cc3)C3CC3)CC(c3ccccc3)C2)c1)C(=O)N1CCNCC1` (racemic) [Compound 5, N-cyclopropyl-1-(3-{[2-methyl-1-oxo-1-(piperazin-1-yl)propan-2-yl]oxy}phenyl)-5-phenyl-N-[(4-phenylphenyl)methyl]piperidine-3-carboxamide], the IC50 was 10 to 20 µM in the test with Human AXIN2, 10 to 20 µM with HCT116 cells, 2.25 µM at BCL9/β-catenin (setting [1]) and 6.2 µM at BCL9/β-catenin (setting [2]).
Regarding `CC(C)(Oc1cccc(N2CC(C(=O)N(Cc3ccc(C4=CCCCC4)cc3)C3CC3)CC(c3ccccc3)C2)c1)C(=O)N1CCNCC1` (racemic) [Compound 6, N-{[4-(cyclohex-1-en-1-yl)phenyl]methyl}-N-cyclopropyl-1-(3-{[2-methyl-1-oxo-1-(piperazin-1-yl)propan-2-yl]oxy}phenyl)-5-phenylpiperidine-3-carboxamide], the IC50 in the test with Human AXIN2 was 10 to 20 µM; with HCT116 cells, 10 to 20 µM; at BCL9/β-catenin (setting [1]) it was 7.75 µM; at BCL9/β-catenin (setting [2]) it was 7.75 µM.
Consider `CC(C)(Oc1cccc(N2CC(C(=O)N(Cc3ccc(-c4cn[nH]c4)cc3)C3CC3)CC(C3CCCCC3)C2)c1)C(=O)N1CCNCC1` (stereo not shown) [Compound 1, 5-cyclohexyl-N-cyclopropyl-1-(3-{[2-methyl-1-oxo-1-(piperazin-1-yl)propan-2-yl]oxy}phenyl)-N-{[4-(1H-pyrazol-4-yl)phenyl]methyl}piperidine-3-carboxamide], for which the IC50 with Human AXIN2 is 10 to 50 µM; in the test on HCT116 cells, 10 to 50 µM; at BCL9/β-catenin (setting [1]), greater than 10 µM; on BCL9/β-catenin (setting [2]), 10 to 50 µM.
On to `CC(C)(Oc1cccc(N2CC(C(=O)N(Cc3ccc(-c4cn[nH]c4)cc3)C3CC3)CC(c3ccccc3)C2)c1)C(=O)N1CCNCC1` (stereo not shown) [Compound 2, N-cyclopropyl-1-(3-{[2-methyl-1-oxo-1-(piperazin-1-yl)propan-2-yl]oxy}phenyl)-5-phenyl-N-{[4-(1H-pyrazol-4-yl)phenyl]methyl}piperidine-3-carboxamide], for which the IC50 with Human AXIN2 is 10 to 20 µM; with HCT116 cells, 10 to 50 µM; at BCL9/β-catenin (setting [1]) it was greater than 10 µM; at BCL9/β-catenin (setting [2]) it was 10 to 50 µM.
For the molecule `CC(C)(Oc1cccc(N2CCC[C@@H](C(=O)N(Cc3ccc(-c4c[nH]c5ncccc45)cc3)C3CC3)C2)c1Cl)C(=O)N1CCNCC1` [Compound 8, (3R)-1-(2-chloro-3-{[2-methyl-1-oxo-1-(piperazin-1-yl)propan-2-yl]oxy}phenyl)-N-cyclopropyl-N-[(4-{1H-pyrrolo[2,3-b]pyridin-3-yl}phenyl)methyl]piperidine-3-carboxamide], the IC50 is 10 to 50 µM with Human AXIN2, 10 to 20 µM in the test on HCT116 cells, greater than 10 µM at BCL9/β-catenin (setting [3]) and 10 to 50 µM on BCL9/β-catenin (setting [2]).
Regarding `CC(C)(Oc1ccc(Cl)c(N2CCC[C@@H](C(=O)N(Cc3ccc(-c4cn[nH]c4)cc3)C3CC3)C2)c1)C(=O)N1CCNCC1` [Compound 9], the IC50 in the test with Human AXIN2 is 10 to 50 µM; in the test on HCT116 cells it was 10 to 50 µM; at BCL9/β-catenin (setting [3]), greater than 10 µM; on BCL9/β-catenin (setting [2]), 10 to 20 µM.
`CC(C)(Oc1ccc(Cl)c(N2CCC[C@@H](C(=O)N(Cc3ccc(C4=CCCCC4)cc3)C3CC3)C2)c1)C(=O)N1CCNCC1` [Compound 10, (3R)-1-(2-chloro-5-{[2-methyl-1-oxo-1-(piperazin-1-yl)propan-2-yl]oxy}phenyl)-N-{[4-(cyclohex-1-en-1-yl)phenyl]methyl}-N-cyclopropylpiperidine-3-carboxamide]: the IC50 in the test with Human AXIN2 was 10 to 20 µM; in the test with HCT116 cells, 10 to 20 µM; on BCL9/β-catenin (setting [3]), 2.7 µM; at BCL9/β-catenin (setting [2]), 2.7 µM.
Regarding `CC(C)(Oc1ccc(Cl)c(N2CCC[C@@H](C(=O)N(Cc3ccc(-c4c[nH]c5ncccc45)cc3)C3CC3)C2)c1)C(=O)N1CCNCC1` [Compound 11, (3R)-1-(2-chloro-5-{[2-methyl-1-oxo-1-(piperazin-1-yl)propan-2-yl]oxy}phenyl)-N-cyclopropyl-N-[(4-{1H-pyrrolo[2,3-b]pyridin-3-yl}phenyl)methyl]piperidine-3-carboxamide], the IC50 in the test with Human AXIN2 is 10 to 20 µM; with HCT116 cells, 10 to 20 µM; at BCL9/β-catenin (setting [3]), 2.44 µM; at BCL9/β-catenin (setting [2]), 2.44 µM.
For `CC(C)(Oc1cccc(N2CCC[C@@H](C(=O)N(Cc3ccc(-c4cn[nH]c4)c(Cl)c3)C3CC3)C2)c1)C(=O)N1CCNCC1` [Compound 12, (3R)-N-{[3-chloro-4-(1H-pyrazol-4-yl)phenyl]methyl}-N-cyclopropyl-1-(3-{[2-methyl-1-oxo-1-(piperazin-1-yl)propan-2-yl]oxy}phenyl)piperidine-3-carboxamide], the IC50 in the test with Human AXIN2 is 10 to 20 µM; in the test with HCT116 cells, 10 to 50 µM; at BCL9/β-catenin (setting [3]), greater than 10 µM; on BCL9/β-catenin (setting [2]), 10 to 20 µM.
Consider `CC(C)(Oc1cccc(N2CCC[C@@H](C(=O)N(Cc3ccc(C4=CCCCC4)c(Cl)c3)C3CC3)C2)c1)C(=O)N1CCNCC1` [Compound 13, (3R)-N-{[3-chloro-4-(cyclohex-1-en-1-yl)phenyl]methyl}-N-cyclopropyl-1-(3-{[2-methyl-1-oxo-1-(piperazin-1-yl)propan-2-yl]oxy}phenyl)piperidine-3-carboxamide], for which the IC50 in the test with Human AXIN2, in the test with HCT116 cells and on BCL9/β-catenin (setting [2]) was 10 to 50 µM throughout.
